In article PMC12624434 (ACS Pharmacology & Translational Science, 2025):
Where “and” joins values, the source holds several entries; their conditions need not be identical. Identical values can stand only once. Entries after “also recorded” stand apart in the source; their conditions may differ. Like-named read-outs stand apart in the source and are kept apart here.

Key:
NRP1 b1 domain = molecular target: T1, NRP1 b1 domain (Homo sapiens, UniProt O14786); experiment: SPR binding to immobilized NRP1 b1 domain (Biacore 4000, CM5 chip); settings: steady-state binding, 25 °C, mean ± SD; for Kd: read-out: SPR NRP1 b1 domain equilibrium KD
T1 construct: with the purified recombinant NRP1 b1 domain immobilized on the chip; inferred from Ni-NTA capture), TEV-cleavable (cleaved yes); made in house; host or cells: E. coli Rosetta (DE3)
T1 sequence (O14786 275-424 limits assumed): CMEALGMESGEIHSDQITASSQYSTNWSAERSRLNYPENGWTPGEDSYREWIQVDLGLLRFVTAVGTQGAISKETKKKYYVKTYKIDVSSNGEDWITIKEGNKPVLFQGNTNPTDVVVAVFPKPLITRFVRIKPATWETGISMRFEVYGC
Procedure: Surface Plasmon Resonance experiments were performed using a Biacore 4000 instrument at a constant temperature of 25 °C. Sensor chips, buffer stock solutions, and immobilization reagents were purchased from GE Healthcare. Recombinant human NRP1-b1 was produced in-house and recombinant human NRP1-ECD (extracellular domain) was purchased from ACRO (catalogue number NR1-H5A228). All other reagents were obtained from Sigma.
PBS containing 0.05% surfactant P20 was used as the running buffer during immobilization. NRP1-b1 was immobilized onto a CM5 chip using random amine coupling. The four flow cells were treated in the same way to optimize throughput. In summary, spots 1 and 2 were activated with the coupling reagents EDC and NHS for 10 min. NRP1-b1 at a concentration of 20 μg/mL in 10 mM sodium acetate pH 5 was injected onto the surface for 10 and 5 min in spots 1 and 2, respectively to generate surfaces with high and low density. […] The unmodified spot 3 was used as a reference.
PBS buffer containing 0.05% surfactant P20 and 3% DMSO was used as the running buffer and sample dilution buffer throughout these experiments. Dose–responses were obtained using a 2-fold sample dilution from 16 μM to 31 nM, using an injection time of 60 s. Surface regeneration between injections was not necessary, but a wash step with 1 M NaCl was included after injection of the highest concentration sample for each compound.
Binding curves were corrected for variations in DMSO concentration and normalized by molecular weight. Binding results to high and low-density surfaces were processed independently and the average ± SD is presented. K Ds reported are derived from steady-state binding responses and therefore correspond to the equilibrium binding affinity of the compounds.

[1] = Solubility (observation during SPR); format: physicochemical; settings: noted with SPR data fitting
[2] = Pharmacokinetics in mice, 2 mg/kg iv; format: in vivo; settings: female, BALB/c, mouse, plasma; for clearance: iv, 2 mg/kg; for AUC: read-out: AUCall
Procedure: To test compound drug-like properties, selected compounds with low IC50 were further evaluated for their pharmacokinetic (PK) profile. 6–8 week-old BABL/c female mice were used. Two mg/kg of compounds was formulated in 7.5% DMSO and 92.5% PBS solution and intravenously dosed into the tail vein as a bolus. Blood samples were collected by cardiac puncture at 5, 15, 30, 60, 180, and 240 min post dosing. Plasma samples were prepared by centrifugation at 7000 rpm for 5 min, and supernatants were collected, immediately snap-frozen on dry ice and stored at −20 °C. Samples were analyzed by liquid chromatography-tandem mass spectrometry using electrospray ionization and data was analyzed by WinNonlin software.

NRP1-a1,b1 = molecular target: T2, NRP1-a1,b1 (Homo sapiens, UniProt O14786); experiment: bt-VEGFA cell-free competition binding assay (plate-based)
T2 sequence (O14786 273-427 limits assumed): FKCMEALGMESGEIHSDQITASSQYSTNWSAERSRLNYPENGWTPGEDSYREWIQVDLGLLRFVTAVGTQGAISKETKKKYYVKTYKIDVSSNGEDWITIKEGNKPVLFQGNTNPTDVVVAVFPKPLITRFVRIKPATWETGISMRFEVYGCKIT
Procedure: The assay was conducted as previously described. Briefly, the 96-well plates were precoated with NRP1 protein at 3 μg/mL overnight at 4 °C. On the following day, the plates were treated with blocking buffer (PBS containing 1%1% BSA) and washed three times with wash buffer (PBS containing 0.1% Tween-20). The various concentrations of compounds diluted in PBS containing 1%1% DMSO were added, followed by addition of 0.25 nM of bt-VEGFA165. After 2 h of incubation at room temperature, the plates were washed three times with wash buffer. The bound bt-VEGFA165 to NRP1 was detected by streptavidin– horseradish peroxidase conjugates and the enzyme substrate, and measured using a Tecan Genius plate reader at 450 nm with a reference wavelength at 595 nm. Nonspecific binding was determined in the absence of NRP1-coated wells of the plates.

[3] = pK BHX scale; no reference given; cited from earlier work
[4] = plate-based assay, Figure 2D, read-out: IC50, competitive inhibition of bt-VEGFA binding to NRP1
[5] = 0.25 nM bt-VEGFA165, mean ± SEM, at least three independent experiments, read-out: Competition analysis bt-VEGFA, cell-free NRP1-a1,b1 IC50

Work on `N=C(N)NCCC[C@H](NC(=O)c1sccc1NS(=O)(=O)c1cc(-c2ccc(CN)cc2)cc2cccnc12)C(=O)O` [Compound 12e, (2S)-2-[[3-[[6-[4-(Aminomethyl)-phenyl]-8-quinolyl]-sulfonylamino]-thiophene-2-carbonyl]-amino]-5-guanidino-pentanoic Acid, Formic Acid] yielded a Kd (NRP1 b1 domain) of 920 ± 150 nM.

With `CN(C)c1nc(CNc2cc(S(=O)(=O)Nc3ccsc3C(=O)N[C@@H](CCCNC(=N)N)C(=O)O)c3ncccc3c2)cs1.O=CO` [Compound 12g, (2S)-2-[[3-[[6-[[2-(Dimethylamino)-thiazol-4-yl]-methylamino]-8-quinolyl]-sulfonylamino]-thiophene-2-carbonyl]-amino]-5-guanidino-pentanoic Acid, Formic Acid] the solubility [1] was “poor solubility”, the “SPR NRP1 b1 domain equilibrium KD” value (NRP1 b1 domain) was “did not converge; also recorded: Curve fit does not converge” and the AUC(0-inf) [2] was 491 ng·h/mL. For the same molecule, the AUC(0-t) [2] was 490 ng·h/mL, the Cmax [2] was 2050 ng/mL and the Tmax [2] was 4.8 min. For the same molecule, the Vd [2] was 0.569 L/kg, the half-life [2] was 23.4 min and the clearance [2] was 67.9 mL/min/kg. For the same molecule, the AUC [2] was 490 ng·h/mL and the IC50 (NRP1-a1,b1; [4]) was under 500 nM.

With `N=C(N)NCCC[C@H](NC(=O)c1sccc1NS(=O)(=O)c1cc(NCc2ccc(N)nc2)cc2cccnc12)C(=O)O` [Compound 12l, (2S)-2-[[3-[[6-[(6-Amino-3-pyridyl)-methylamino]-8-quinolyl]-sulfonylamino]-thiophene-2-carbonyl]-amino]-5-guanidino-pentanoic Acid, Formic Acid] the Kd (NRP1 b1 domain) was 1230 ± 360 nM.

Molecule `N=C(N)NCCC[C@H](NC(=O)c1sccc1NS(=O)(=O)c1cc(NCc2cccc(N3CCOCC3)n2)cc2cccnc12)C(=O)O` [Compound 12k, (2S)-5-Guanidino-2-[[3-[[6-[(6-morpholino-2-pyridyl)-methylamino]-8-quinolyl]-sulfonylamino]-thiophene-2-carbonyl]-amino]-pentanoic Acid] has a Kd (NRP1 b1 domain) of 1140 ± 120 nM.

In the case of `N=C(N)NCCC[C@H](NC(=O)c1sccc1NS(=O)(=O)c1cccc2cccnc12)C(=O)O` [Compound 12o, (S)-5-Guanidino-2-{[3-(quinoline-8-sulfonylamino)-thiophene-2-carbonyl]-amino}-pentanoic Acid], the Kd (NRP1 b1 domain) is reported as 1410 ± 160 nM and the IC50 (NRP1-a1,b1; [5]) is reported as 900 ± 160 nM.

Molecule `N=C(N)NCCC[C@H](NC(=O)c1sccc1NS(=O)(=O)c1cc(-c2cccc(CN)c2)cc2cccnc12)C(=O)O` [Compound 12d, (2S)-2-[[3-[[6-[3-(Aminomethyl)-phenyl]-8-quinolyl]-sulfonylamino]-thiophene-2-carbonyl]-amino]-5-guanidino-pentanoic Acid, Formic Acid] has a Kd (NRP1 b1 domain) of 650 ± 50 nM.

Work on `CN(C)c1ncc(CNc2cc(S(=O)(=O)Nc3ccsc3C(=O)N[C@@H](CCCNC(=N)N)C(=O)O)c3ncccc3c2)cn1` [Compound 12m, (2S)-2-[[3-[[6-[[2-(Dimethylamino)-pyrimidin-5-yl]-methylamino]-8-quinolyl]-sulfonylamino]-thiophene-2-carbonyl]-amino]-5-guanidino-pentanoic Acid] yielded a Kd (NRP1 b1 domain) of 7710 ± 310 nM.

Work on `Cn1cncc1CNCc1cccc(-c2cc(S(=O)(=O)Nc3ccsc3C(=O)N[C@@H](CCCNC(=N)N)C(=O)O)c3ncccc3c2)c1` [Compound 12a, (2S)-5-Guanidino-2-[[3-[[6-[3-[[(3-methylimidazol-4-yl)-methylamino]-methyl]-phenyl]-8-quinolyl]-sulfonylamino]-thiophene-2-carbonyl]-amino]-pentanoic Acid, Formic Acid] yielded a Kd (NRP1 b1 domain) of 1440 ± 130 nM.

In the case of `CCOCC` [diethyl ether], the “pK BHX (hydrogen bond acceptor strength)” value [3] is listed as 1.01.

For `c1ccc2ncccc2c1` [quinoline], the “pK BHX (hydrogen bond acceptor strength)” value [3] is listed as 1.89.

`Cn1cncc1CNCc1ccc(-c2cc(S(=O)(=O)Nc3ccsc3C(=O)N[C@@H](CCCNC(=N)N)C(=O)O)c3ncccc3c2)cc1` [Compound 12c, (2S)-5-Guanidino-2-[[3-[[6-[4-[[(3-methylimidazol-4-yl)-methylamino]-methyl]-phenyl]-8-quinolyl]-sulfonylamino]-thiophene-2-carbonyl]-amino]-pentanoic Acid, Formic Acid] showed a Kd (NRP1 b1 domain) of 800 ± 140 nM.

Molecule `CNCc1ccc(-c2cc(S(=O)(=O)Nc3ccsc3C(=O)N[C@@H](CCCNC(=N)N)C(=O)O)c3ncccc3c2)cc1` [Compound 12b, (2S)-5-Guanidino-2-[[3-[[6-[4-(methylaminomethyl)-phenyl]-8-quinolyl]-sulfonylamino]-thiophene-2-carbonyl]-amino]-pentanoic Acid, Formic Acid] has a Kd (NRP1 b1 domain) of 2270 ± 70 nM.

For `N=C(N)NCCC[C@H](NC(=O)c1sccc1NS(=O)(=O)c1cc(-c2ccnc(N)c2)cc2cccnc12)C(=O)O` [Compound 12f, (2S)-2-[[3-[[6-(2-Amino-4-pyridyl)-8-quinolyl]-sulfonylamino]-thiophene-2-carbonyl]-amino]-5-guanidino-pentanoic Acid, Formic Acid], the Kd (NRP1 b1 domain) was 1490 ± 200 nM.

In the case of `N=C(N)NCCC[C@H](NC(=O)c1sccc1NS(=O)(=O)c1cc(-c2csc(N)n2)cc2cccnc12)C(=O)O` [Compound 12q, (S)-2-({3-[6-(2-Amino-thiazol-4-yl)-quinoline-8-sulfonylamino]-thiophene-2-carbonyl}-amino)-5-guanidino-pentanoic Acid], the Kd (NRP1 b1 domain) is reported as 510 nM and 2540 nM.

For `CN(C)c1ccc(CNc2cc(S(=O)(=O)Nc3ccsc3C(=O)N[C@@H](CCCNC(=N)N)C(=O)O)c3ncccc3c2)cn1` [Compound 12n, (2S)-2-[[3-[[6-[[6-(Dimethylamino)-3-pyridyl]-methylamino]-8-quinolyl]-sulfonylamino]-thiophene-2-carbonyl]-amino]-5-guanidino-pentanoic Acid], the Kd (NRP1 b1 domain) was 820 ± 100 nM.

In the case of `C1CCOC1` [tetrahydrofuran], the “pK BHX (hydrogen bond acceptor strength)” value [3] is listed as 1.28.

In the case of `N=C(N)NCCC[C@H](NC(=O)c1sccc1NS(=O)(=O)c1cc(NCc2csc(N)n2)cc2cccnc12)C(=O)O` [Compound 12i, (2S)-2-[[3-[[6-[(2-Aminothiazol-4-yl)-methylamino]-8-quinolyl]-sulfonylamino]-thiophene-2-carbonyl]-amino]-5-guanidino-pentanoic Acid, Formic Acid], the Kd (NRP1 b1 domain) is reported as 1040 ± 120 nM.

For `c1c[nH]cn1` [imidazole], the “pK BHX (hydrogen bond acceptor strength)” value [3] is given as 2.72.

Work on `CNc1nc(CNc2cc(S(=O)(=O)Nc3ccsc3C(=O)N[C@@H](CCCNC(=N)N)C(=O)O)c3ncccc3c2)cs1` [Compound 12j, (2S)-5-Guanidino-2-[[3-[[6-[[2-(methylamino)-thiazol-4-yl]-methylamino]-8-quinolyl]-sulfonylamino]-thiophene-2-carbonyl]-amino]-pentanoic Acid] yielded a Kd (NRP1 b1 domain) of 530 ± 140 nM, an AUC(0-inf) [2] of 643 ng·h/mL and an AUC(0-t) [2] of 640 ng·h/mL. The Cmax [2] was 2500 ng/mL, the Tmax [2] was 4.8 min and the Vd [2] was 0.628 L/kg. It also gave a half-life [2] of 36 min, a clearance [2] of 51.9 mL/min/kg and an AUC [2] of 640 ng·h/mL. The IC50 (NRP1-a1,b1; [5]) was 450 ± 10 nM, the IC50 (NRP1-a1,b1; [4]) was under 500 nM and the “Competition analysis bt-VEGFA, cell-free NRP1-a1,b1 Hill coefficient” value (NRP1-a1,b1; value in parentheses) was 1.0.
